Read-outs that look alike come from different tables or passages of the source.
How the values were obtained:
[1] = target: T1, GSK3b (GST-full length GSK3b) (Homo sapiens, UniProt P49841); experiment: GSK3b TR-FRET kinase inhibition assay; format: biochemical
T1 construct: GST-full length GSK3b: [SignalChem G08-9G]; purchased SignalChem G08-9G
How it was run: (§1)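 IC50 derived from normalized 665/615 TR-FRET signal (Tb anti-pSer641 antibody, streptavidin-d2), read after EDTA stop. Reaction: 1 nM GST-full-length enzyme, 30 min compound pre-incubation, 100 min at ambient temperature in Tris pH 7.5 with 1% DMSO, 200 nM biotinylated primed glycogen synthase peptide, ATP 2 μM to 1 mM.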

[2] = target: T2, GSK3a (GST-full length GSK3a) (Homo sapiens, UniProt P49840); experiment: GSK3a TR-FRET kinase inhibition assay; format: biochemical
T2 construct: GST-full length GSK3a [SignalChem G08-10G]; purchased SignalChem G08-10G
T2 sequence (P49840 whole entry): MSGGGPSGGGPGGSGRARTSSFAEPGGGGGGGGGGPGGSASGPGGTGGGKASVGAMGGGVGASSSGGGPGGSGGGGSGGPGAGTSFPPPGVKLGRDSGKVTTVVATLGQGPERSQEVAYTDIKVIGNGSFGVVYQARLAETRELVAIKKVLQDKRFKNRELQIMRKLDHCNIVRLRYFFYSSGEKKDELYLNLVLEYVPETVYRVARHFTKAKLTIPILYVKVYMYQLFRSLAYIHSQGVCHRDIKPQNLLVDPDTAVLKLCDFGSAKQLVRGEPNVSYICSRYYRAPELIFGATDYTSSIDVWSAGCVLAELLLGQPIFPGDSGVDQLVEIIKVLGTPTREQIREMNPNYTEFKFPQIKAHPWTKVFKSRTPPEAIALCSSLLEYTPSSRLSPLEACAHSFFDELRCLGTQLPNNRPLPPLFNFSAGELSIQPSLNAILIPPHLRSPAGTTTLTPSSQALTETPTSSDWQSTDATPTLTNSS
How it was run: as §1

[3] = 1 mM ATP, Table 5, read-out: GSK3β TR-FRET 1 mM ATP Average IC50
[4] = 1 mM ATP, Table 5, read-out: GSK3α TR-FRET 1 mM ATP Average IC50
[5] = 2 μM ATP, read-out: GSK3β TR-FRET 2 μM ATP GMean IC50
[6] = 4 μM ATP, read-out: GSK3α TR-FRET 4 μM ATP GMean IC50
[7] = 1 mM ATP, Table 3, read-out: GSK3b TR-FRET 1 mM ATP Average IC50
[8] = 1 mM ATP, Table 3, read-out: GSK3a TR-FRET 1 mM ATP Average IC50

T1 sequence (P49841 whole entry): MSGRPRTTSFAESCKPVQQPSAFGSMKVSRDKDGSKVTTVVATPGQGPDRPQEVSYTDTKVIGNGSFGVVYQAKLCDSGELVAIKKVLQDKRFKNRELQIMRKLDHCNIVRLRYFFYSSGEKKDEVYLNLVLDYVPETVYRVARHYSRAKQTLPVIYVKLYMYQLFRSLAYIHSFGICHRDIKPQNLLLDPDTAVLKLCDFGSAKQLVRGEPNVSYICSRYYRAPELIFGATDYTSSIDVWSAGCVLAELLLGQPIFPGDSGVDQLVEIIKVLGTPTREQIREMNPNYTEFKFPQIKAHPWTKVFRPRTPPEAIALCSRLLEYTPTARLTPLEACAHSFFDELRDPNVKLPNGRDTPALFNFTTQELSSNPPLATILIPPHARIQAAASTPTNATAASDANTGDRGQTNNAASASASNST

SMILES	IC50 [1, 3]	IC50 [2, 4]	IC50 [1, 5]	IC50 [2, 6]	IC50 [1, 7]	IC50 [2, 8]
CC1(C)CC2=C(C(=O)N1)C(C)(c1ccccc1)c1c(ncc(F)c1C#N)N2 (single isomer, unassigned) [604B]	≤ 0.1 µM	≤ 0.1 µM	–	–	–	–
CCC1(c2ccccc2)C2=C(Nc3ncccc31)C(F)C(C)(C)CC2=O (single isomer, unassigned) [Compound 1006A]	–	–	> 5 µM	> 5 µM	–	–
CC1(C)CC(=O)C2=C(C1)Nc1nccc(CC3CC3)c1C2(C)c1ccccc1 (single isomer, unassigned) [Compound 123A]	–	–	–	–	1 to 5 µM	1 to 5 µM
CC(C)Oc1cccc(C2(C)C3=C(CC(C)(C)CC3=O)Nc3ncc4c(cnn4C)c32)c1 (single isomer, unassigned) [645A]	5 to 20 µM	5 to 20 µM	–	–	–	–
CC1(C)CC(=O)C2=C(C1)Nc1ncc(F)c(C#N)c1C2(C)c1cccc(F)c1 (single isomer, unassigned) [618B]	0.1 to 1 µM	0.1 to 1 µM	–	–	–	–
Cc1c(F)cnc2c1C(C)(c1cccc(S(C)(=O)=O)c1)C1=C(CC(C)(C)CC1=O)N2 (single isomer, unassigned) [Compound 144A]	–	–	–	–	0.1 to 1 µM	0.1 to 1 µM
CC1(C)CC(=O)C2=C(C1)Nc1ncc(CO)c(C#N)c1C2(C)c1ccccc1 (single isomer, unassigned) [613B]	1 to 5 µM	5 to 20 µM	–	–	–	–
CC1(C)CC(=O)C2=C(C1)Nc1ncc(C(F)(F)F)cc1C2(C)c1cccc(S(C)(=O)=O)c1 (single isomer, unassigned) [Compound 157B]	–	–	–	–	5 to 20 µM	5 to 20 µM
CCC1(c2cccc(-c3ccnc4c3CCCC4)c2)C2=C(CC(C)(C)CC2=O)Nc2ncccc21 (single isomer, unassigned) [Compound 1039A]	–	–	0.1 to 1 µM	0.1 to 1 µM	–	–
CCC1(c2cccc(-c3ccncc3OC)c2)C2=C(CC(C)(C)CC2=O)Nc2ncccc21 (single isomer, unassigned) [Compound 1028A]	–	–	> 5 µM	1 to 5 µM	–	–
CCC1(c2cccc(C(C)C)c2)C2=C(CC(C)(C)CC2=O)Nc2ncccc21 (single isomer, unassigned) [Compound 1011A]	–	–	> 5 µM	> 5 µM	–	–
CC1(C)CC(=O)C2=C(C1)Nc1ncccc1C2(C)c1cccc(N(CC2CC2)c2ncccn2)c1 (single isomer, unassigned) [652A]	5 to 20 µM	5 to 20 µM	–	–	–	–
CC1(C)CC(=O)C2=C(C1)Nc1ncccc1C2(C)c1cccc(-c2ccncc2OCC(F)F)c1 (single isomer, unassigned) [Compound 162B]	–	–	–	–	0.1 to 1 µM	0.1 to 1 µM
Cc1c(F)cnc2c1C(C)(c1cccc(S(C)(=O)=O)c1)C1=C(CC(C)(C)CC1=O)N2 (single isomer, unassigned) [Compound 144B]	–	–	–	–	5 to 20 µM	5 to 20 µM
CCC1(c2cccc(-c3cc(C)nn3C)c2)C2=C(CC(C)(C)CC2=O)Nc2ncccc21 (single isomer, unassigned) [Compound 1024A]	–	–	> 5 µM	1 to 5 µM	–	–
CCC1(c2cccc(-c3cc(C)nn3C)c2)C2=C(CC(C)(C)CC2=O)Nc2ncc(F)cc21 (single isomer, unassigned) [Compound 1033B]	–	–	≤ 0.1 µM	≤ 0.1 µM	–	–
C=Cc1cnc2c(c1Br)C(C)(c1ccccc1)C1=C(CC(C)(C)CC1=O)N2 (single isomer, unassigned) [640B]	5 to 20 µM	5 to 20 µM	–	–	–	–
CC1(C)CC(=O)C2=C(C1)Nc1ncc(F)c(C(F)(F)F)c1C2(C)c1ccccc1 (single isomer, unassigned) [Compound 135A]	–	–	–	–	0.1 to 1 µM	0.1 to 1 µM
CC1(C)CC(=O)C2=C(C1)Nc1ncc(C(F)(F)F)c(C#N)c1C2(C)c1ccccc1 (single isomer, unassigned) [Compound 137B]	–	–	–	–	1 to 5 µM	1 to 5 µM
CCC1(c2cccc(-c3ccnc4c3CCC4)c2)C2=C(CC(C)(C)CC2=O)Nc2ncccc21 (single isomer, unassigned) [Compound 1034A]	–	–	> 5 µM	> 5 µM	–	–
C=C(C)c1cnc2c(c1C#N)C(C)(c1ccccc1)C1=C(CC(C)(C)CC1=O)N2 (single isomer, unassigned) [620A]	5 to 20 µM	5 to 20 µM	–	–	–	–

— US20260103465A1, “GLYCOGEN SYNTHASE KINASE 3 INHIBITORS AND USES THEREOF” (The Broad Institute, Inc., priority 2023, published 2026)
